ChEMBL document CHEMBL1148870, “Novel inhibitors of VEGF receptors-1 and -2 based on azole-5-carboxamide templates” (Bioorg Med Chem Lett, 2007)

Tests used:
[1] = target: RAF proto-oncogene serine/threonine-protein kinase (Homo sapiens) (UniProt P04049); test: Inhibition of Raf1 at 10 uM; parameters: scale not given: the % may be the effect or the level left
[2] = target: RAC-alpha serine/threonine-protein kinase (Homo sapiens) (UniProt P31749); test: Inhibition of PKB/Akt at 10 uM; parameters: scale not given: the % may be the effect or the level left
[3] = species: Homo sapiens; test: Inhibition of PKA at 10 uM; parameters: scale not given: the % may be the effect or the level left
[4] = target: Receptor tyrosine-protein kinase erbB-2 (Homo sapiens) (UniProt P04626); test: Inhibition of ErbB2/Her2 at 10 uM; parameters: scale not given: the % may be the effect or the level left
[5] = species: Homo sapiens; test: Inhibition of Cdk1 at 10 uM; parameters: scale not given: the % may be the effect or the level left
[6] = species: Homo sapiens; test: Inhibition of InR at 10 uM; parameters: scale not given: the % may be the effect or the level left
[7] = target: Hepatocyte growth factor receptor (Homo sapiens) (UniProt P08581); test: Inhibition of cMet at 10 uM; parameters: scale not given: the % may be the effect or the level left
[8] = target: Cyclin-dependent kinase 2 (Homo sapiens) (UniProt P24941); test: Inhibition of Cdk2 at 10 uM; parameters: scale not given: the % may be the effect or the level left
[9] = target: Insulin-like growth factor 1 receptor (Homo sapiens) (UniProt P08069); test: Inhibition of IGF1R at 10 uM; parameters: scale not given: the % may be the effect or the level left
[10] = target: Epidermal growth factor receptor (Homo sapiens) (UniProt P00533); test: Inhibition of ErbB1 at 10 uM; parameters: scale not given: the % may be the effect or the level left
[11] = target: Glycogen synthase kinase-3 beta (Homo sapiens) (UniProt P49841); test: Inhibition of GSK3-beta at 10 uM; parameters: scale not given: the % may be the effect or the level left
[12] = target: Receptor-type tyrosine-protein kinase FLT3 (Homo sapiens) (UniProt P36888); test: Inhibition of Flt3 at 10 uM; parameters: scale not given: the % may be the effect or the level left
[13] = target: T1, Vascular endothelial growth factor receptor 2 (Homo sapiens, UniProt P35968); test: Inhibition of VEGFR2 assessed as inhibition of phosphorylation in presence of 2 uM ATP by HTRF assay; assay type: functional
[14] = target: Fibroblast growth factor receptor 1 (Homo sapiens) (UniProt P11362); test: Inhibition of FGFR1 at 10 uM; parameters: scale not given: the % may be the effect or the level left
[15] = species: Homo sapiens; test: Inhibition of bcr-Abl at 10 uM; parameters: scale not given: the % may be the effect or the level left
[16] = target: Vascular endothelial growth factor receptor 1 (Homo sapiens, UniProt P17948); test: Inhibition of VEGFR1 assessed as inhibition of phosphorylation in presence of 2 uM ATP by HTRF assay; assay type: functional
[17] = target: Vascular endothelial growth factor receptor 3 (Homo sapiens) (UniProt P35916); test: Inhibition of Flt4 at 10 uM; parameters: scale not given: the % may be the effect or the level left
[18] = target: T1, Vascular endothelial growth factor receptor 2; test: Inhibition of VEGFR2 assessed as inhibition of phosphorylation in human 293 cells by cell-based ELISA; assay type: functional, HEK293

Vascular endothelial growth factor receptor 1, sequence (P17948 whole entry): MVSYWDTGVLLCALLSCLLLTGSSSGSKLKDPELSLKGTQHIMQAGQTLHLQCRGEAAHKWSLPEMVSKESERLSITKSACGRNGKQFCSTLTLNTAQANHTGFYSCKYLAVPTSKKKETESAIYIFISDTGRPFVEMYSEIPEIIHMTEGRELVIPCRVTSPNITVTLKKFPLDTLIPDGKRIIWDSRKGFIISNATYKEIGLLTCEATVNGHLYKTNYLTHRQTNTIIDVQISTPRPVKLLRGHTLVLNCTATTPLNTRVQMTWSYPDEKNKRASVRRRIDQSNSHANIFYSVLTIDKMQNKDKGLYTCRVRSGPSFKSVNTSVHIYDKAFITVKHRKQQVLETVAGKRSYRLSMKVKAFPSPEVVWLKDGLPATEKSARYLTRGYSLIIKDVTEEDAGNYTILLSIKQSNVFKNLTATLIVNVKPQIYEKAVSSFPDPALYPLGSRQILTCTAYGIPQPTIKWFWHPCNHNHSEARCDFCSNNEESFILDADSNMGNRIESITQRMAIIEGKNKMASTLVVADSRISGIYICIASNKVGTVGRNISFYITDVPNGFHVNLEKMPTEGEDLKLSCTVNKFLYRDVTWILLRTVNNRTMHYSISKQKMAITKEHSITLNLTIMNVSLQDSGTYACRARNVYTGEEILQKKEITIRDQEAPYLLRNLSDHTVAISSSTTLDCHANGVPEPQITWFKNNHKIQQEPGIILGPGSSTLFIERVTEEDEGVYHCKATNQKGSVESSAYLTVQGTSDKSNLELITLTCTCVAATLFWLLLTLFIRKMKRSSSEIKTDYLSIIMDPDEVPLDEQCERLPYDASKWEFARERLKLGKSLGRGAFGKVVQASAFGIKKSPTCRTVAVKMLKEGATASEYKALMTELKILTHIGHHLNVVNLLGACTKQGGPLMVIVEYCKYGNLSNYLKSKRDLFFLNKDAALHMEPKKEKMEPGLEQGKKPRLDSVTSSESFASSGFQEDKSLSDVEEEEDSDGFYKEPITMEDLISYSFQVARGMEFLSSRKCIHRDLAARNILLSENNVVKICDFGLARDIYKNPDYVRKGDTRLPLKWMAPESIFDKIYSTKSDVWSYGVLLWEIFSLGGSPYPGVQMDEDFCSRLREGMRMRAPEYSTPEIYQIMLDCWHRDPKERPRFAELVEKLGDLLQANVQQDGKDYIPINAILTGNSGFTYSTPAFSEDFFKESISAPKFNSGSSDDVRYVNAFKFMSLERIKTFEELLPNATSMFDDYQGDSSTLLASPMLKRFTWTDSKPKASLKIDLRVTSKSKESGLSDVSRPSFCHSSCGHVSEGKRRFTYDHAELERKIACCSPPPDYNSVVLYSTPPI
Glycogen synthase kinase-3 beta (Homo sapiens), sequence (P49841 whole entry, looked up): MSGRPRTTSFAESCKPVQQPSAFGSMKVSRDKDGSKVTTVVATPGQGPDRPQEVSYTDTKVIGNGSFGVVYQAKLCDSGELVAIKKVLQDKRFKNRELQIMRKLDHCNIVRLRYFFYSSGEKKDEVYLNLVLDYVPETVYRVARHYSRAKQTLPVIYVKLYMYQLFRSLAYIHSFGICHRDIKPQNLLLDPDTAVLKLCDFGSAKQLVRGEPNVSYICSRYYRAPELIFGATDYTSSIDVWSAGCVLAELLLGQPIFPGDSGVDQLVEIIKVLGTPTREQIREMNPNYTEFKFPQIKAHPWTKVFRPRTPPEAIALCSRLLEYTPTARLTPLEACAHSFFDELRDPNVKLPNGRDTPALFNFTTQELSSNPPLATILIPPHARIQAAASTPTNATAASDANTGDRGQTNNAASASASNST
T1 sequence (P35968 whole entry): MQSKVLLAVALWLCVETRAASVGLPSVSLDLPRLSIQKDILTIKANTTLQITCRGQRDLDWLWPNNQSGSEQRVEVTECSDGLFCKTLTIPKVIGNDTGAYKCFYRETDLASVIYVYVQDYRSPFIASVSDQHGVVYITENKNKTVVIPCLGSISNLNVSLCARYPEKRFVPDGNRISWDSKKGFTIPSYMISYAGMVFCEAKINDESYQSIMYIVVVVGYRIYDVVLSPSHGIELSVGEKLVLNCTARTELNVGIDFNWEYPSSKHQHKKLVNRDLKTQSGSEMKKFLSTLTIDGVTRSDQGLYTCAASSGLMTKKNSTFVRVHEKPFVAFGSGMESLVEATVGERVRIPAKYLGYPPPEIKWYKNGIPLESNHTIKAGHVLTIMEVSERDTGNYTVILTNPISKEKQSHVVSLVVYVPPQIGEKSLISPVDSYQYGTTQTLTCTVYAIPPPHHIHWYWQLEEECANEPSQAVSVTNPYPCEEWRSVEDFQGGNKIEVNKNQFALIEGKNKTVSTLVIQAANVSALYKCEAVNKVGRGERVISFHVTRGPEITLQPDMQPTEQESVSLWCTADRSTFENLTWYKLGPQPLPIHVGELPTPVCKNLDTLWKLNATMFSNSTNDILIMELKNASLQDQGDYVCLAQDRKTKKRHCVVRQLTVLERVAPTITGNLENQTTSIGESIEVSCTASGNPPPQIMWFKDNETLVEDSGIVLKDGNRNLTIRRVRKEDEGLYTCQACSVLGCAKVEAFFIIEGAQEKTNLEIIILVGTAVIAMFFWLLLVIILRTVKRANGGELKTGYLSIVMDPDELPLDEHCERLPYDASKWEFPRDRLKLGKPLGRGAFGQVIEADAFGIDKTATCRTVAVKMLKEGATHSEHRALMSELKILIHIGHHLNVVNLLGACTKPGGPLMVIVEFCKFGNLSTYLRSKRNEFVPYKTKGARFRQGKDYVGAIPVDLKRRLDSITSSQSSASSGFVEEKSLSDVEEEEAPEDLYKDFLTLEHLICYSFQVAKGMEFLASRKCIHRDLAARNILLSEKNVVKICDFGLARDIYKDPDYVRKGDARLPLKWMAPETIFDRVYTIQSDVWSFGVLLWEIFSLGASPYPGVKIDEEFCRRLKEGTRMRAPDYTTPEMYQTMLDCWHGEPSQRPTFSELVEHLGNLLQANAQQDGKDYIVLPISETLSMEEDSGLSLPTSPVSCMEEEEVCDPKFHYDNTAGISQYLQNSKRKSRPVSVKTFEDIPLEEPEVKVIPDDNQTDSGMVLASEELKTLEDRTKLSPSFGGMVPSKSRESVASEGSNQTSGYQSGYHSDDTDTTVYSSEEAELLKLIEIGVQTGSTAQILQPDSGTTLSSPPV
RAC-alpha serine/threonine-protein kinase (Homo sapiens), sequence (P31749 whole entry): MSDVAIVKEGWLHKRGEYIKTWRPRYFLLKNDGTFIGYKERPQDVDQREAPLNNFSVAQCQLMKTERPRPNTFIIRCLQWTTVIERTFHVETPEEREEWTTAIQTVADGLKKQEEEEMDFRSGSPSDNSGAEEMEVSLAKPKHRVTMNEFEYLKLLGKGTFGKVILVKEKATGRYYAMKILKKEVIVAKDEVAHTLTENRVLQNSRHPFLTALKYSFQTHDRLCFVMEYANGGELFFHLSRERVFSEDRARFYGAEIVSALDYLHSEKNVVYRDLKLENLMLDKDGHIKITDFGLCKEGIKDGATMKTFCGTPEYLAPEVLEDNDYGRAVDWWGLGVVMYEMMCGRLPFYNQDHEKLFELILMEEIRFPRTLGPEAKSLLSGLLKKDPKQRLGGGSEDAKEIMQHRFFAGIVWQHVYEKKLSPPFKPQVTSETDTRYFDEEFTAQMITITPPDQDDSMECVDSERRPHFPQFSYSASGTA
Vascular endothelial growth factor receptor 3 (Homo sapiens), sequence (P35916 whole entry): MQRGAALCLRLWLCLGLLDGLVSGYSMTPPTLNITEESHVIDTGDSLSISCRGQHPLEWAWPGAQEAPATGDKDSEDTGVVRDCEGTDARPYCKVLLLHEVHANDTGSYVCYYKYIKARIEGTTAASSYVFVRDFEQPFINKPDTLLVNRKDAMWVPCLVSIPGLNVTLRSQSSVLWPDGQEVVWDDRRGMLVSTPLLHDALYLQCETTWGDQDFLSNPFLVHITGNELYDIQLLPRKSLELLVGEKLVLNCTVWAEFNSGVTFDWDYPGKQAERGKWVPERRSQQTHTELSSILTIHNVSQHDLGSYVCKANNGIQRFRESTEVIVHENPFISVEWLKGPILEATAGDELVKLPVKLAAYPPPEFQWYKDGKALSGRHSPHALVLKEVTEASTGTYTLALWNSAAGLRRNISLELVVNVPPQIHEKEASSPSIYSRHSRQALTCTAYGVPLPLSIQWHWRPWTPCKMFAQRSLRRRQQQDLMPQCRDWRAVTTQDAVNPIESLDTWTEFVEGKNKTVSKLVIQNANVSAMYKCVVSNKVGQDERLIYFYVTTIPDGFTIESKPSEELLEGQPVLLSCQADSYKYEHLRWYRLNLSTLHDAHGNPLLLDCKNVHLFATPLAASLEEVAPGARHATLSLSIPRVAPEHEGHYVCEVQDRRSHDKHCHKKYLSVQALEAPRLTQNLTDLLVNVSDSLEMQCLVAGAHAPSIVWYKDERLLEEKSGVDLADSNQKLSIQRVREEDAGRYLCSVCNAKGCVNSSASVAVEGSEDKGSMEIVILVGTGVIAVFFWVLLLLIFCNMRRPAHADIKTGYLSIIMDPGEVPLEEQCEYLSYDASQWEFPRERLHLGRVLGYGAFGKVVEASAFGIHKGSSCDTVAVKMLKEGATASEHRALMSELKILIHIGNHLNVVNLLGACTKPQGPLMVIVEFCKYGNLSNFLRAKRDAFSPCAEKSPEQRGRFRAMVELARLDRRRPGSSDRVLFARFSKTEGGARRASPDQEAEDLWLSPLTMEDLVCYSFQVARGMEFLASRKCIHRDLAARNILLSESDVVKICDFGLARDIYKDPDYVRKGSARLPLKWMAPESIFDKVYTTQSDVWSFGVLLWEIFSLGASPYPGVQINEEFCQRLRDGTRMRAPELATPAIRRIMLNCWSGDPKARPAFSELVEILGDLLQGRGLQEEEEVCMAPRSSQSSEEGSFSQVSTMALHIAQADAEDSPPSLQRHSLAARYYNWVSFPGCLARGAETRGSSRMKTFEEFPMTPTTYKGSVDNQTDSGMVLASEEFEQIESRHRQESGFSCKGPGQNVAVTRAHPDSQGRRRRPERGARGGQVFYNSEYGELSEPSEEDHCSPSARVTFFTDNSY

SMILES | Activity [1] [%] | Activity [2] [%] | Activity [3] [%] | Activity [4] [%] | Activity [5] [%] | Activity [6] [%] | Activity [7] [%] | Activity [8] [%] | Activity [9] [%] | Activity [10] [%] | Activity [11] [%] | Activity [12] [%] | IC50 [13] [µM] | Activity [14] [%] | Activity [15] [%] | IC50 [16] [µM] | Activity [17] [%] | IC50 [18] [µM]
COc1ccc(CCn2nccc2C(=O)Nc2ccc(Cl)cc2)cc1OC | > 30 | > 30 | > 30 | > 30 | > 30 | > 30 | > 30 | > 30 | > 30 | < 30 | > 30 | > 30 | > 10 | > 30 | > 30 | > 10 | > 30 | > 10
Cc1cc(C(=O)Nc2ccc(Cl)cc2)n(CCc2ccncc2)n1 | > 30 | > 30 | > 30 | > 30 | > 30 | > 30 | > 30 | > 30 | > 30 | < 30 | > 30 | > 30 | 0.78 | > 30 | > 30 | 1.22 | > 30 | 2.54
O=C(Nc1ccc(Cl)cc1)c1ccnn1CCc1ccccn1 | > 30 | > 30 | > 30 | > 30 | > 30 | > 30 | > 30 | > 30 | > 30 | < 30 | > 30 | > 30 | > 10 | > 30 | > 30 | > 10 | > 30 | > 10
O=C(Nc1ccc(-c2ccccc2)cc1)c1ccnn1CCc1ccncc1 | > 30 | > 30 | > 30 | > 30 | > 30 | > 30 | > 30 | > 30 | > 30 | < 30 | > 30 | > 30 | 0.95 | > 30 | > 30 | 2.25 | > 30 | 1.56
CC(C)(C)c1ccc(NC(=O)c2nnnn2CCc2ccncc2)cc1 | > 30 | > 30 | > 30 | > 30 | > 30 | > 30 | > 30 | > 30 | > 30 | < 30 | > 30 | > 30 | > 10 | > 30 | > 30 | > 10 | > 30 | > 10
O=C(Nc1ccc(Cl)cc1)c1ccnn1CCc1c[nH]cn1 | > 30 | > 30 | > 30 | > 30 | > 30 | > 30 | > 30 | > 30 | > 30 | < 30 | > 30 | > 30 | > 10 | > 30 | > 30 | > 10 | > 30 | > 10
CN(C(=O)c1ccnn1CCc1ccncc1)c1ccc(Cl)cc1 |  |  |  |  |  |  |  |  |  |  |  |  | > 10 |  |  | > 10 |  | 
O=C(Nc1ccc2[nH]ncc2c1)c1ccnn1CCc1ccncc1 | > 30 | > 30 | > 30 | > 30 | > 30 | > 30 | > 30 | > 30 | > 30 | < 30 | > 30 | > 30 | 5.15 | > 30 | > 30 | > 10 | > 30 | > 10
O=C(Nc1ccc(Cl)cc1)c1cc2ccccc2n1CCc1ccncc1 | > 30 | > 30 | > 30 | > 30 | > 30 | > 30 | > 30 | > 30 | > 30 | < 30 | > 30 | > 30 | > 10 | > 30 | > 30 | > 10 | > 30 | > 10

More lines, now with the values ahead:

Activity [1] [%] | Activity [2] [%] | Activity [3] [%] | Activity [4] [%] | Activity [5] [%] | Activity [6] [%] | Activity [7] [%] | Activity [8] [%] | Activity [9] [%] | Activity [10] [%] | Activity [11] [%] | Activity [12] [%] | IC50 [13] [µM] | Activity [14] [%] | Activity [15] [%] | IC50 [16] [µM] | Activity [17] [%] | IC50 [18] [µM] | SMILES
> 30 | > 30 | > 30 | > 30 | > 30 | > 30 | > 30 | > 30 | > 30 | < 30 | > 30 | > 30 | > 10 | > 30 | > 30 | > 10 | > 30 | > 10 | O=C(Nc1ccc(C(F)(F)F)c(Cl)c1)c1nc2ccccc2n1CCc1ccncc1
> 30 | > 30 | > 30 | > 30 | > 30 | > 30 | > 30 | > 30 | > 30 | < 30 | > 30 | > 30 | 0.37 | > 30 | > 30 | 0.45 | > 30 | 0.28 | O=C(Nc1cccc(OC(F)(F)F)c1)c1ccnn1CCc1ccncc1
> 30 | > 30 | > 30 | > 30 | > 30 | > 30 | > 30 | > 30 | > 30 | < 30 | > 30 | > 30 | 0.94 | > 30 | > 30 | 3.86 | > 30 | 2.25 | CC(C)(C)c1ccc(NC(=O)c2nccn2CCc2ccncc2)cc1
> 30 | > 30 | > 30 | > 30 | > 30 | > 30 | > 30 | > 30 | > 30 | < 30 | > 30 | > 30 | 0.79 | > 30 | > 30 | 4.27 | > 30 | 1.05 | O=C(Nc1ccc(OC(F)(F)F)cc1)c1nccn1CCc1ccncc1
> 30 | > 30 | > 30 | > 30 | > 30 | > 30 | > 30 | > 30 | > 30 | < 30 | > 30 | > 30 | 0.64 | > 30 | > 30 | 0.89 | > 30 | 2.03 | O=C(Nc1ccc(Cl)cc1)c1nnnn1CCc1ccncc1
> 30 | > 30 | > 30 | > 30 | > 30 | > 30 | > 30 | > 30 | > 30 | < 30 | > 30 | > 30 | 2.65 | > 30 | > 30 | 3.88 | > 30 | 2.97 | O=C(Nc1ccc(OC(F)(F)F)cc1)c1nnnn1CCc1ccncc1
> 30 | > 30 | > 30 | > 30 | > 30 | > 30 | > 30 | > 30 | > 30 | < 30 | > 30 | > 30 | 0.47 | > 30 | > 30 | 0.79 | > 30 | 1.66 | O=C(Nc1ccc(C(F)(F)F)cc1)c1nccn1CCc1ccncc1
> 30 | > 30 | > 30 | > 30 | > 30 | > 30 | > 30 | > 30 | > 30 | < 30 | > 30 | > 30 | 0.75 | > 30 | > 30 | 2.33 | > 30 | 0.45 | O=C(Nc1ccc(Cl)c(C(F)(F)F)c1)c1ccnn1CCc1ccncc1
